Patent US6399100B1, “Controlled release pharmaceutical compositions containing tiagabine” (Elan Corporation, plc, priority 1997, dated 2002)

Legend:
[1] = Aqueous solubility of raw material
From the text: The tiagabine employed in the following examples is the monohydrate crystalline form for the hydrochloride salt of the R isomer.

[2] = cited from earlier work
[3] = four hours after ingestion, deliberate overdose; cited from earlier work

SMILES	aqueous solubility [1]	half-life ([2]; in humans)	elimination half-life ([2]; lowered by enzyme inducers)	Plasma levels [3]	plasma level relative to typical steady state therapeutic dosing levels [3]
Cc1ccsc1C(=CCCN1CCCC(C(=O)O)C1)c1sccc1C.Cl (centres unmarked) [tiagabine hydrochloride monohydrate, N-(4,4-di(3-methylthien-2-yl)but-3-enyl) nipecotic acid hydrochloride]	high	–	–	–	–
Cc1ccsc1C(=CCCN1CCCC(C(=O)O)C1)c1sccc1C (centres unmarked) [tiagabine, N-(4,4-di(3-methylthien-2-yl)but-3-enyl) nipecotic acid]	–	5 to 8 h	2 to 3 h	3100 ng/mL	30 times
